Where two headings read alike, the source gives them in different places.
Legend:
[1] = tested on: B16 melanocytes stimulated with NDP-MSH; test: Anti-melanogenesis activity: melanin synthesis in B16 melanocytes stimulated with NDP-MSH; format: cell-based
Procedure: The depigmenting effect was evaluated on a line of type B16 melanocytes stimulated with NDP-MSH, (natural hormone stimulating melanogenesis; Melanocyte Stimulating Hormone, [Nle, DPhe]-α-MSH). Melanin synthesis was evaluated.
The anti-melanogenesis activity of the compounds in solution in DMSO was evaluated by measuring melanin synthesis in a model of B16 melanocytes stimulated with a stable derivative of α-MSH (natural melanogenesis stimulating hormone): NDP-MSH.
(§1) The melanocytes were seeded in a 96-well plate and were cultured for 24 h (37° C., 5% CO2, DMEM 1 g/L glucose without phenol red supplemented with glucose at 3 g/L, L-glutamine at 2 mM, penicillin at 50 U/mL, streptomycin at 50 μg/mL, foetal calf serum (FCS) at 10%). After incubation, the culture medium was then replaced with culture medium supplemented or not supplemented (unstimulated control) with a stable derivative of α-MSH and containing or not containing (controls) the test compounds or the reference (kojic acid at 25, 100, 400, 800 μg/mL). Each experiment was carried out with n=3, apart from the controls carried out with n=6, then the cells were incubated for 72 h. Wells without cells received in parallel the same quantities of medium supplemented or not supplemented with NDP-MSH and containing or not containing the test compounds or the reference in order to quantify the background noise associated with the presence of the compounds.
After incubation for 72 hours, the total melanin (intra- and extracellular) was quantified by measuring the absorption at 405 nm of each sample (direct reading of the culture plates) against a standard range of melanin (melanin concentrations tested from 0.78 to 100 μg/mL). The background noise, measured in the wells without cells, was subtracted from the measured values so as only to take into account the effect connected with melanin production, without taking into account the possible interference connected with the presence of the compounds. The results were expressed as percentage of melanin relative to the control as well as percentage inhibition.
The operating conditions are the same as in Example 12.

B16 melanocytes = test: Cell viability, MTT reduction test; format: cell-based
Procedure: as §1, with “compounds. At the end of the treatment, the cells were incubated in the presence of MTT (tetrazolium salt), the transformation of which to blue crystals of formazan is proportional to the activity of succinate dehydrogenase (mitochondrial enzyme). After dissociation of the cells, the formazan was dissolved in DMSO medium and the optical density (OD), representative of the number of living cells and of their metabolic reactivity, was measured with a microplate reader at 540 nm (VERSAmax, Molecular Devices). The operating conditions are the same as in Example 12.” for “compounds.”

[2] = 30 μM, NDP-MSH stimulated B16, 72 h, Table 2
[3] = 100 μM, NDP-MSH stimulated B16, 72 h, Table 2
[4] = Melanocyte, 30 μM, NDP-MSH stimulated B16, 72 h, Table 2, read-out: Standardized data Inhibition (%) (melanin)
[5] = Melanocyte, NDP-MSH stimulated B16, 72 h, Table 2, read-out: Standardized data Inhibition (%) (melanin)
[6] = Melanocyte, 30 μM, comparison with 2 reference molecules, Table 3, read-out: Standardized data Inhibition (%) (melanin)
[7] = Melanocyte, 100 μM, comparison with 2 reference molecules, Table 3, read-out: Standardized data Inhibition (%) (melanin)
[8] = Melanocyte, 100 μM, NDP-MSH stimulated B16, 72 h, Table 2, read-out: Standardized data Inhibition (%) (melanin)

Row | SMILES | Viability (MTT) % stimulated control (B16 melanocytes; 30 μM, B16, 72 h, Table 2) [%] | Viability (MTT) % stimulated control (B16 melanocytes; 100 μM, B16, 72 h, Table 2) [%] | inhibition at 30 µM [1, 4] [%] | inhibition at 100 µM [1, 8] [%] | further results
1 | COc1ccc(OCCc2ccccc2O)cc1 [Compound 4] | 97 | 54 |  |  | Standardized data Inhibition (%) (melanin) [1, 2]: 95%; Standardized data Inhibition (%) (melanin) [1, 3]: 111%
2 | Fc1ccc(OCCc2ccccc2Br)cc1 [Compound 8] | 94 | 93 |  |  | Standardized data Inhibition (%) (melanin) [1, 2]: −27%; Standardized data Inhibition (%) (melanin) [1, 3]: 50%
3 | CC(=O)OC[C@H]1OC(Oc2ccccc2CCOc2ccc(F)cc2)[C@H](OC(C)=O)[C@@H](OC(C)=O)[C@@H]1OC(C)=O (stereo partly shown) [Compound 30] | 88 |  | 13 |  | 
4 | Oc1ccccc1CCOc1ccc(OCc2ccccc2)cc1 [Compound 20] | 59 |  | 115 |  | inhibition at 3 µM [1, 5]: 83%; inhibition at 10 µM [1, 5]: 108%; Viability (MTT) % stimulated control (B16 melanocytes; 3 μM, B16, 72 h, Table 2): 106%; Viability (MTT) % stimulated control (B16 melanocytes; 10 μM, B16, 72 h, Table 2): 84%
5 | CCCCc1ccc(O)cc1O [Ref 1, 4-(2,4-dihydroxyphenyl)butane, reference compound] |  |  |  |  | inhibition at 30 µM [1, 6]: 82%; inhibition at 100 µM [1, 7]: 100%
6 | Cc1cccc(CCOc2ccc(F)cc2)c1 [Compound 11] | 83 | 109 | -2 | 44 | 
7 | CC(C)c1ccc(OCC(=O)c2ccccc2O)cc1 [Compound 40] | 90 |  | 58 |  | inhibition at 10 µM [1, 5]: 5%; Viability (MTT) % stimulated control (B16 melanocytes; 10 μM, B16, 72 h, Table 2): 102%
8 | COc1ccccc1C1(COc2ccc(F)cc2)CC1 [Compound 18] | 80 | 75 | -21 | 105 | 
9 | CCCc1ccc(OCCc2ccccc2O)cc1 [Compound 130] | 81 |  | 116 |  | inhibition at 3 µM [1, 5]: 72%; inhibition at 10 µM [1, 5]: 110%; Viability (MTT) % stimulated control (B16 melanocytes; 3 μM, B16, 72 h, Table 2): 98%; Viability (MTT) % stimulated control (B16 melanocytes; 10 μM, B16, 72 h, Table 2): 89%
10 | COc1ccccc1OCC(O)c1ccccc1O (stereo not shown) [Compound 125] | 90 |  | 13 |  | 
11 | COc1ccc(CCCc2ccc(O)cc2O)c(OC)c1C [Ref 2, 1-(2,4-dihydroxyphenyl)-3-(2,4-dimethoxy-3-methylphenyl)propane, reference compound] |  |  |  |  | inhibition at 30 µM [1, 6]: 45%; inhibition at 100 µM [1, 7]: 113%; Viability (MTT) % stimulated control (B16 melanocytes; 30 μM, comparison with 2 reference molecules, Table 3): 102%; Viability (MTT) % stimulated control (B16 melanocytes; 100 μM, comparison with 2 reference molecules, Table 3): 76%
12 | COc1ccc(OCCc2ccccc2OC)cc1 [Compound 14] | 89 | 80 | -22 | 100 | 
13 | O=c1cc(CO)occ1O [Kojic acid, reference compound] |  |  |  |  | inhibition at 25 µg/mL ([1]; Melanocyte, 25 μg/mL, NDP-MSH stimulated B16, 72 h, Table 2, read-out: Standardized data Inhibition (%) (melanin)): 24%; inhibition at 100 µg/mL ([1]; Melanocyte, 100 μg/mL, NDP-MSH stimulated B16, 72 h, Table 2, read-out: Standardized data Inhibition (%) (melanin)): 78%; inhibition at 400 µg/mL ([1]; Melanocyte, 400 μg/mL, NDP-MSH stimulated B16, 72 h, Table 2, read-out: Standardized data Inhibition (%) (melanin)): 90%; Viability (MTT) % stimulated control (B16 melanocytes; 25 μg/mL, B16, 72 h, Table 2): 85%; Viability (MTT) % stimulated control (B16 melanocytes; 100 μg/mL, B16, 72 h, Table 2): 76%; Viability (MTT) % stimulated control (B16 melanocytes; 400 μg/mL, B16, 72 h, Table 2): 76%
14 | Fc1ccc(CCOc2ccccc2OCc2ccccc2)cc1 [Compound 25] | 93 |  | 46 |  | 
15 | O=[N+]([O-])c1ccc(OCCc2ccccc2O)cc1 [Compound 19] | 91 | 0 | 82 | 111 | 
16 | Cc1ccc(OCCc2ccccc2O)cc1 [Compound 2] | 108 | 34 | 100 | 112 | 
17 | Oc1ccccc1CCOc1ccccc1 [Compound 5] | 103 | 67 |  |  | Standardized data Inhibition (%) (melanin) [1, 2]: 49%; Standardized data Inhibition (%) (melanin) [1, 3]: 111%
18 | CC(C)(C)c1ccc(OCCc2ccccc2O)cc1 [Compound 47] | 18 |  | 116 |  | inhibition at 3 µM [1, 5]: 75%; inhibition at 10 µM [1, 5]: 111%; Viability (MTT) % stimulated control (B16 melanocytes; 3 μM, B16, 72 h, Table 2): 116%; Viability (MTT) % stimulated control (B16 melanocytes; 10 μM, B16, 72 h, Table 2): 89%
19 | CCc1ccc(OCCc2ccccc2O)cc1 [Compound 35] | 88 |  | 112 |  | inhibition at 3 µM [1, 5]: 54%; inhibition at 10 µM [1, 5]: 92%; Viability (MTT) % stimulated control (B16 melanocytes; 3 μM, B16, 72 h, Table 2): 105%; Viability (MTT) % stimulated control (B16 melanocytes; 10 μM, B16, 72 h, Table 2): 97%
20 | COc1ccccc1CCOc1ccc(F)cc1 [Compound 16] | 87 | 83 | -33 | 52 | 
21 | Oc1ccccc1C(O)COc1ccc(F)cc1 (stereo not shown) [Compound 24] | 76 | 78 | -12 | 84 | 
22 | Oc1ccccc1CCOc1ccc(Cl)cc1 [Compound 31] | 88 |  | 109 |  | inhibition at 3 µM [1, 5]: 20%; inhibition at 10 µM [1, 5]: 70%; Viability (MTT) % stimulated control (B16 melanocytes; 3 μM, B16, 72 h, Table 2): 91%; Viability (MTT) % stimulated control (B16 melanocytes; 10 μM, B16, 72 h, Table 2): 104%
23 | Oc1ccccc1CCOc1ccc(Br)cc1 [Compound 3] | 96 | 0 | 110 | 112 | 
24 | Oc1ccc(OCCc2ccccc2F)cc1 [Compound 27] | 77 |  | 95 |  | 
25 | CC(=O)O[C@@H]1[C@@H](OC(C)=O)[C@@H](OC(C)=O)C(Oc2ccccc2CCOc2ccc(F)cc2)O[C@H]1C (stereo partly shown) [Compound 127] | 90 |  | 29 |  | 

— patent publication US20150004110A1, “NOVEL ANTI-AGING AND DEPIGMENTING COSMETIC COMPOSITIONS” (DIVERCHIM, priority 2011, published 2015)
